Where a name gives a salt, the structure may show the parent alone. Read-outs that look alike come from different tables or passages of the source.
How the values were obtained:
[1] = system: intraocular pressure; assay: Experiment 1: ocular hypotensive effect of eye drops in rabbits (applanation pneumatonograph); type: in vivo, Male Japanese White rabbits; conditions: for Difference in IOP between the control and test eyes: 50 μl
Protocol: The ocular hypotensive effect of the eye drops of this invention was investigated in rabbits. The same experiment was also conducted using a representative β-adrenergic blocking agent, and its ocular hypotensive effect was compared with that of eye drops of this invention. Methods: […] […] Male Japanese White rabbits (body weight: ca. 2 kg) with normal intraocular pressure were used in the experiment. […] For each solution, five rabbits were used. After anesthesia of the corneal surface by instillating 5 μl of 0.4%. oxybuprocaine hydrochloride, the intraocular pressure was measured using an applanation pneumatonograph (Alcon) before and after the instillation of the test solution and control solution. Measurement of intraocular pressure after the instillation was conducted with one-hour intervals until six hours post-instillation.

[2] = system: rabbit eyes; assay: Experiment 2: eye irritation test (modified Draize test); type: in vivo, Male Japanese White rabbits
[3] = mice, cited from earlier work
[4] = 0.5% eye drops, before instillation

What does the source list for `CC(C)(C)NC[C@H](O)COc1nsnc1N1CCOCC1` [Timolol maleate, timolol maleate]?
Difference in IOP between the control and test eyes ([1]; 0.5% (free base), 1 hr): -0.80 mmHg; Difference in IOP between the control and test eyes ([1]; 0.5% (free base), 2 hr): -0.80 mmHg; Difference in IOP between the control and test eyes ([1]; 0.5% (free base), 4 hr): -0.25 mmHg; Difference in IOP between the control and test eyes ([1]; 0.5% (free base), 6 hr): -0.10 mmHg; IOP reduction ([1]; 0.5% eye drops, one hour after instillation): 0.8 mmHg; IOP reduction ([1]; 0.5% eye drops, two hours after instillation): 0.8 mmHg; degree of the IOP reduction compared with the 0.0001% eye drops of the invention ([1]; 0.5% timolol eye drops): significantly less

Which results are given for `OCCN(CCO)c1nc(N2CCCCC2)c2nc(N(CCO)CCO)nc(N3CCCCC3)c2n1` [Compound (1), dipyridamole]?
Difference in IOP between the control and test eyes ([1]; 0.00005% (free base), 1 hr): -0.60 mmHg; Difference in IOP between the control and test eyes ([1]; 0.00005% (free base), 2 hr): -0.50 mmHg; Difference in IOP between the control and test eyes ([1]; 0.00005% (free base), 4 hr): -0.20 mmHg; Difference in IOP between the control and test eyes ([1]; 0.00005% (free base), 6 hr): -0.10 mmHg; time of maximal IOP reduction after instillation ([1]; 0.00005% eye drops): one; Difference in IOP between the control and test eyes ([1]; 0.0001% (free base), 1 hr): -1.30 mmHg; Difference in IOP between the control and test eyes ([1]; 0.0001% (free base), 2 hr): -0.95 mmHg; Difference in IOP between the control and test eyes ([1]; 0.0001% (free base), 4 hr): -0.30 mmHg; Difference in IOP between the control and test eyes ([1]; 0.0001% (free base), 6 hr): -0.20 mmHg; time of maximal IOP reduction after instillation ([1]; 0.0001% eye drops): one; ocular hypotensive effect remained unchanged after instillation ([1]; 0.0005% eye drops): 2.0 h; Difference in IOP between the control and test eyes ([1]; 0.001% (free base), 1 hr): -2.00 mmHg; Difference in IOP between the control and test eyes ([1]; 0.001% (free base), 2 hr): -1.56 mmHg; Difference in IOP between the control and test eyes ([1]; 0.001% (free base), 4 hr): -1.00 mmHg; Difference in IOP between the control and test eyes ([1]; 0.001% (free base), 6 hr): -0.75 mmHg; time of maximal IOP reduction after instillation ([1]; 0.001% eye drops): one; Difference in IOP between the control and test eyes ([1]; 0.01% (free base), 1 hr): -3.44 mmHg; Difference in IOP between the control and test eyes ([1]; 0.01% (free base), 2 hr): -2.25 mmHg; Difference in IOP between the control and test eyes ([1]; 0.01% (free base), 4 hr): -1.31 mmHg; Difference in IOP between the control and test eyes ([1]; 0.01% (free base), 6 hr): -1.00 mmHg; ocular hypotensive effect remained unchanged after instillation ([1]; 0.01% eye drops): six; time of maximal IOP reduction after instillation ([1]; 0.01% eye drops): one; Difference in IOP between the control and test eyes ([1]; 0.1% (free base), 1 hr): -4.50 mmHg; Difference in IOP between the control and test eyes ([1]; 0.1% (free base), 2 hr): -3.05 mmHg; Difference in IOP between the control and test eyes ([1]; 0.1% (free base), 4 hr): -2.40 mmHg; Difference in IOP between the control and test eyes ([1]; 0.1% (free base), 6 hr): -1.00 mmHg; average difference of the IOP from the control eye drops ([1]; 0.1% eye drops): 4.5 mmHg; ocular hypotensive effect retained after instillation ([1]; 0.1% eye drops): six; time of maximal IOP reduction after instillation ([1]; 0.1% eye drops): one; Difference in IOP between the control and test eyes ([1]; 0.5% (free base), 1 hr): -3.94 mmHg; Difference in IOP between the control and test eyes ([1]; 0.5% (free base), 2 hr): -4.40 mmHg; Difference in IOP between the control and test eyes ([1]; 0.5% (free base), 4 hr): -3.10 mmHg; Difference in IOP between the control and test eyes ([1]; 0.5% (free base), 6 hr): -1.60 mmHg; ocular hypotensive effect remained unchanged after instillation ([1]; 0.5% eye drops): six; time of maximal IOP reduction after instillation ([1]; 0.5% eye drops): two; score for the tunica conjunctiva bulbi versus control solution ([2]; 0.5% eye drops): slightly higher than that for the control solution; Conjunctivae: Chemosis (average score) ([2]; 0.5% eye drops, 0.5 hours): 0; Conjunctivae: Condition of haw (average score) ([2]; 0.5% eye drops, 0.5 hours): 0.6; Conjunctivae: Discharge (average score) ([2]; 0.5% eye drops, 0.5 hours): 0; Conjunctivae: Redness of tunica conjunctivae bulbi (average score) ([2]; 0.5% eye drops, 0.5 hours): 0.9; Conjunctivae: Redness of tunica conjunctivae palpebrarum (average score) ([2]; 0.5% eye drops, 0.5 hours): 1.5; Cornea: Area of cornea involved (average score) ([2]; 0.5% eye drops, 0.5 hours): 0; Cornea: Opacity degree of density (average score) ([2]; 0.5% eye drops, 0.5 hours): 0; Iris: values (average score) ([2]; 0.5% eye drops, 0.5 hours): 0.5; congestion in the iris ([2]; 0.5% eye drops, 0.5 hours after instillation): slight congestion; Conjunctivae: Chemosis (average score) ([2]; 0.5% eye drops, 1 hour): 0; Conjunctivae: Condition of haw (average score) ([2]; 0.5% eye drops, 1 hour): 0.5; Conjunctivae: Discharge (average score) ([2]; 0.5% eye drops, 1 hour): 0; Conjunctivae: Redness of tunica conjunctivae bulbi (average score) ([2]; 0.5% eye drops, 1 hour): 1.1; Conjunctivae: Redness of tunica conjunctivae palpebrarum (average score) ([2]; 0.5% eye drops, 1 hour): 1.8; Cornea: Area of cornea involved (average score) ([2]; 0.5% eye drops, 1 hour): 0; Cornea: Opacity degree of density (average score) ([2]; 0.5% eye drops, 1 hour): 0; Iris: values (average score) ([2]; 0.5% eye drops, 1 hour): 1.0; Conjunctivae: Chemosis (average score) ([2]; 0.5% eye drops, 2 hours): 0; Conjunctivae: Condition of haw (average score) ([2]; 0.5% eye drops, 2 hours): 0.5; Conjunctivae: Discharge (average score) ([2]; 0.5% eye drops, 2 hours): 0; Conjunctivae: Redness of tunica conjunctivae bulbi (average score) ([2]; 0.5% eye drops, 2 hours): 0.9; Conjunctivae: Redness of tunica conjunctivae palpebrarum (average score) ([2]; 0.5% eye drops, 2 hours): 1.8; Cornea: Area of cornea involved (average score) ([2]; 0.5% eye drops, 2 hours): 0; Cornea: Opacity degree of density (average score) ([2]; 0.5% eye drops, 2 hours): 0; Iris: values (average score) ([2]; 0.5% eye drops, 2 hours): 0.8; Conjunctivae: Chemosis (average score) ([2]; 0.5% eye drops, 3 hours): 0; Conjunctivae: Condition of haw (average score) ([2]; 0.5% eye drops, 3 hours): 0.5; Conjunctivae: Discharge (average score) ([2]; 0.5% eye drops, 3 hours): 0; Conjunctivae: Redness of tunica conjunctivae bulbi (average score) ([2]; 0.5% eye drops, 3 hours): 0.5; Conjunctivae: Redness of tunica conjunctivae palpebrarum (average score) ([2]; 0.5% eye drops, 3 hours): 1.3; Cornea: Area of cornea involved (average score) ([2]; 0.5% eye drops, 3 hours): 0; Cornea: Opacity degree of density (average score) ([2]; 0.5% eye drops, 3 hours): 0; Iris: values (average score) ([2]; 0.5% eye drops, 3 hours): 0.5; Conjunctivae: Chemosis (average score) ([2]; 0.5% eye drops, 6 hours): 0; Conjunctivae: Condition of haw (average score) ([2]; 0.5% eye drops, 6 hours): 0.5; Conjunctivae: Discharge (average score) ([2]; 0.5% eye drops, 6 hours): 0; Conjunctivae: Redness of tunica conjunctivae bulbi (average score) ([2]; 0.5% eye drops, 6 hours): 0.1; Conjunctivae: Redness of tunica conjunctivae palpebrarum (average score) ([2]; 0.5% eye drops, 6 hours): 0.8; Cornea: Area of cornea involved (average score) ([2]; 0.5% eye drops, 6 hours): 0; Cornea: Opacity degree of density (average score) ([2]; 0.5% eye drops, 6 hours): 0; Iris: values (average score) ([2]; 0.5% eye drops, 6 hours): 0; congestion in the iris ([2]; 0.5% eye drops, after 6 hours): disappeared; Conjunctivae: Chemosis (average score) [2, 4]: 0; Conjunctivae: Condition of haw (average score) [2, 4]: 0.4; Conjunctivae: Discharge (average score) [2, 4]: 0; Conjunctivae: Redness of tunica conjunctivae bulbi (average score) [2, 4]: 0.1; Conjunctivae: Redness of tunica conjunctivae palpebrarum (average score) [2, 4]: 0.8; Cornea: Area of cornea involved (average score) [2, 4]: 0; Cornea: Opacity degree of density (average score) [2, 4]: 0; Iris: values (average score) [2, 4]: 0; other irritation items, test solution versus control solution ([2]; 0.5% eye drops, irrespective of time): no difference; irritation to rabbit eyes (overall) ([2]; eye drops of the present invention): negligible irritation; LD50 ([3]; intravenous injection): 150 mg/kg; LD50 ([3]; subcutaneous administration): 2700 mg/kg

From patent US5438060A, “Method of reducing elevated intraocular pressure” (priority 1994, dated 1995)
